Experimental data: publication PMC5103216, “Novel Agonist Bioisosteres and Common Structure-Activity Relationships for The Orphan G Protein-Coupled Receptor GPR139” (Scientific Reports, 2016)
“Also recorded” adds a separate entry of the source. Where two headings read alike, the source gives them in different places.

Key:
GPR139 [1] = molecular target: T1, GPR139 (Homo sapiens, UniProt Q6DWJ6); assay: IP-One HTRF assay measuring Gq activation in CHO-139; format: cell-based
T1 sequence (Q6DWJ6 1-353): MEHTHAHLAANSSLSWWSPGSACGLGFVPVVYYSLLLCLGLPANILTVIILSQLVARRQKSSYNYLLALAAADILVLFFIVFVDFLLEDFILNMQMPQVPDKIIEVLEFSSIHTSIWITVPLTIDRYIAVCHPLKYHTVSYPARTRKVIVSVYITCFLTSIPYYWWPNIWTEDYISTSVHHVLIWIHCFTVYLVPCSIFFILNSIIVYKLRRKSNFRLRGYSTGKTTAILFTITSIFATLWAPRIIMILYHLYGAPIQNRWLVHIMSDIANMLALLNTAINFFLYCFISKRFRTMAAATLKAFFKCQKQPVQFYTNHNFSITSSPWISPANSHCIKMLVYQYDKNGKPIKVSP
Procedure: Figure 3 IP-One HTRF® assay measuring Gq activation. Concentration-response curves of 1a, 7c (racemic), L-Trp, L-Phe, DL43, DL126, DL24, DL22, DL132 and DL130 on (A) CHO-139 and (B) CHO-M1 in the IP-One assay (final conc of LiCl = 20 mM). The dotted line represent the [IP1] response from (A) 10 μM 1a and (B) 1 μM carbachol, which is an agonist for the muscarinic acethylcholine receptor M1 that activates the Gq coupled pathway. The graphs are means ± SEM based on three independent experiments performed in triplicates.
The IP-One assay was performed as described in the work by Thomsen et al.[28], with few modifications. Breifly, CHO-139 and CHO-M1 were detached and re-suspended to a concentration of 10 million cells/mL. 5 μL 2x concentrated compound (+40 mM LiCl) and 5 μL cell suspension (50,000 cells/well) was mixed. The plate was sealed and incubated at 37 °C for 1 hour. Next, 10 μL detection reagents (lysis buffer containing 2.5% Eu^3+-anti-IP1 antibody and 2.5% IP1-d2) was added and the plate was incubated for 1 hour at room temperature. The plate was read on an Envision (PerkinElmer, Waltham, MA, USA). The time resolved-fluorescence resonance energy transfer (TR-FRET) 665 nm/615 nm ratio, which is inversely proportional to the inositol monophosphate (IP1) accumulation, was used to determine the concentration of the IP1 response.

GPR139 [2] = molecular target: T1, GPR139; set-up: method as in ref 11 (Shi et al.); details: ref 11 (Shi et al.), cited from earlier work; for EC50: GPR139 agonist potency
GPR139 [3] = molecular target: T1, GPR139; set-up: method as in ref 13, 14 (Dvorak et al.); details: 14 (Dvorak et al.), cited from earlier work; for Emax: relative to L-Trp; for EC50: mean of at least three experiments
GPR139 [4] = molecular target: T1, GPR139; assay: Fluo-4 Ca2+-assay in CHO-k1 cells stably expressing GPR139 (CHO-GPR139); format: cell-based; details: for Emax: CHO-K1, relative to 1a
Procedure: Compound 1a[11] was kindly provided by H. Lundbeck A/S, Denmark. Compound 7c (Enamine no: Z31449867) was tested as a racemate, as the (S)-form described by Janssen et al. was not commercially available. All compounds were dissolved to 20 mM in DMSO (Sigma, D2650) and subsequently diluted in a HEPES buffer (HBSS (Invitrogen, 14025) supplemented with 20 mM HEPES + 1 mM MgCl2 + 1 mM CaCl2, pH = 7.4) to a final concentration 0.5% DMSO in the assay. The DMSO level was kept constant for all concentrations of all compounds. DMSO was confirmed not to have any activity by itself at this concentration. L-Tryptophan (T0254) and L-Phenylalanine (P2126) were obtained from Sigma-Aldrich and dissolved directly in buffer.
All compounds were tested on a CHO-k1 cell line stably expressing GPR139 (CHO-GPR139) kindly provided by H. Lundbeck A/S, Denmark, and also on a CHO-k1 cell line stably expressing the M1 receptor (CHO-M1) (The Missouri S&T cDNA Resource Center, #CEM100TN00) to check for specificity. The CHO-GPR139 was grown in Dulbecco’s modified eagle medium (DMEM) F12-Kaighn’s (Gibco, 21127) supplemented with 10% dialysed fetal bovine serum (Gibco, 26400, United States origin), 1% GlutaMAX^TM-I (100X) (Gibco, 35050), and 100 units/mL penicillin and 100 μg/mL streptomycin (Gibco, 15140) and 1.0 mg/mL geneticin (Invitrogen, 1181103). CHO-M1 was grown in Ham’s F12 (Gibco, 21765) supplemented with 10% fetal bovine serum (Gibco, 10270, South America origin) +100 units/mL penicillin and 100 μg/mL streptomycin (Invitrogen, 15140–122) and 0,25 mg/mL geneticin (Life Technologies, 11811–031). Compound 1a and carbamoylcholine chloride (Sigma-Aldrich, C4382) were used as positive controls in the two cell lines, respectively.
30.000 cells/well were plated in black 96-well plates with flat clear bottoms (Corning, Falcon, 353219) and incubated overnight. The Fluo-4 dye loading solution (Invitrogen, F36206) was prepared according to the manufacturer’s instructions by dissolving it in HEPES buffer supplemented with 2.5 mM probenecid. 50 μL dye loading solution was added to each well. Cells were incubated with the Fluo-4 dye for 60 min at 37 °C, then washed with 100 μL HEPES buffer. 100 μL HEPES buffer supplemented with 2.5 mM probenecid was then added to each well and incubated in 10 minutes at 37 °C before measurement. 33 μL of the test compounds (4x concentrated) were added automatically after baseline measurements. Intracellular calcium change was recorded on a NOVOstar instrument (BMG Labtech) at 37 °C with an excitation filter of 485 nm and an emission filters 520 nm. Data originate from three independent experiments in triplicates.

[5] = CHO-GPR139, mean of at least three experiments

Row | SMILES | Emax (GPR139 [2]) | Emax (GPR139 [3]) | further results
1 | CC(NC(=O)CNC(=O)c1cccc(Cl)c1)c1ccccc1 (racemic) [7c (racemic)] | – | – | EC50 (GPR139 [1]; IP-One HTRF assay, CHO-139, 20 mM LiCl): 0.49 µM; Emax (GPR139 [1]; IP-One HTRF assay, relative to compound 1a, 7c at 10 μM and L-Trp at 20 mM (highest concentration tested)): 120^(*) %; agonist type (GPR139 [1]; IP-One assay, compared to compound 1a): super-agonists
2 | O=C(NNC(=O)c1ccccc1)Nc1cccc2ccccc12 [1b] | 85% | – | EC50 (GPR139 [2]): 2.4 µM
3 | CCOc1ccccc1C(=O)NNC(=O)Nc1cccc2ccccc12 [1d] | 53% | – | –
4 | CCc1cc(CC)cc(C(=O)NNC(=O)Nc2cccc3ccccc23)c1 [1e] | 6% | – | –
5 | O=C(NNC(=O)c1ccc(F)cc1)Nc1cccc2ccccc12 [1g] | 96% | – | EC50 (GPR139 [2]): 0.44 µM
6 | COc1cc(C(=O)NNC(=O)Nc2cccc3ccccc23)cc(OC)c1OC [1h] | 76% | – | EC50 (GPR139 [2]): 0.063 µM
7 | O=C(NNC(=O)c1ccc(Oc2ccccc2)cc1)Nc1cccc2ccccc12 [1i] | 61% | – | EC50 (GPR139 [2]): 2.1 µM
8 | COc1cc(OC)cc(C(=O)NNC(=O)Nc2ccc(Br)c3ccccc23)c1 [1j] | 73% | – | –
9 | COc1cc(OC)cc(C(=O)NNC(=O)Nc2ccc(C#N)c3ccccc23)c1 [1k] | 20% | – | –
10 | COc1cc(OC)cc(C(=O)NNC(=O)Nc2c(C)ccc3ccccc23)c1 [1l] | 86% | – | EC50 (GPR139 [2]): 0.086 µM
11 | COc1cc(OC)cc(C(=O)NNC(=O)Nc2ccc(Cl)c3ccccc23)c1 [1m] | 64% | – | –
12 | COc1cc(OC)cc(C(=O)NNC(=O)Nc2cccc3c(Br)cccc23)c1 [1n] | 54% | – | –
13 | COc1cc(OC)cc(C(=O)NNC(=O)Nc2cccc3ccc(OC)cc23)c1 [1o] | 50% | – | –
14 | COc1cc(CNNC(=O)Nc2cccc3ccccc23)cc(OC)c1 [1p] | – | – | EC50 (GPR139 [2]): > 10 µM
15 | COc1cc(OC)cc(C(=O)CNC(=O)Nc2cccc3ccccc23)c1 [1q] | 100% | – | EC50 (GPR139 [2]): 3.3 µM
16 | COc1cc(OC)cc(C(=O)NCC(=O)Nc2cccc3ccccc23)c1 [1r] | 98% | – | EC50 (GPR139 [2]): 0.18 µM
17 | COc1cc(OC)cc(C(=O)N(C)NC(=O)Cc2cccc3ccccc23)c1 [1t] | 74% | – | EC50 (GPR139 [2]): 2.5 µM
18 | COc1cc(OC)cc(C(=O)NN(C)C(=O)Cc2cccc3ccccc23)c1 [1u] | 84% | – | EC50 (GPR139 [2]): 5.1 µM
19 | C[C@H](NC(=O)CNC(=O)c1ccccc1)c1ccccc1 [7a] | – | 130% | –
20 | C[C@H](NC(=O)CNC(=O)c1ccc(Cl)cc1)c1ccccc1 [7d] | – | 117% | –
21 | Cc1cccc(C(=O)NCC(=O)N[C@@H](C)c2ccccc2)c1 [7e] | – | 137% | –
22 | C[C@H](NC(=O)CNC(=O)c1cccc(C#N)c1)c1ccccc1 [7f] | – | 129% | –
23 | C[C@H](NC(=O)CNC(=O)c1cccc(F)c1)c1ccccc1 [7g] | – | 118% | –

Row | SMILES | Emax (GPR139 [2]) | Emax (GPR139 [3]) | further results
24 | COc1cccc(C(=O)NCC(=O)N[C@@H](C)c2ccccc2)c1 [7h] | – | 146% | –
25 | C[C@H](NC(=O)CNC(=O)c1cccc(C(F)(F)F)c1)c1ccccc1 [7i] | – | 134% | –
26 | C[C@H](NC(=O)CNC(=O)c1cccc(OC(F)(F)F)c1)c1ccccc1 [7j] | – | 129% | –
27 | C[C@H](NC(=O)CNC(=O)c1cccc(Cl)c1Cl)c1ccccc1 [7k] | – | 113% | –
28 | C[C@H](NC(=O)CNC(=O)c1ccc(Cl)c(Cl)c1)c1ccccc1 [7l] | – | 106% | –
29 | C[C@H](NC(=O)CNC(=O)c1cc(Cl)ccc1Cl)c1ccccc1 [7m] | – | 139% | –
30 | C[C@H](NC(=O)CNC(=O)c1cc(Cl)cc(Cl)c1)c1ccccc1 [7n] | – | 119% | –
31 | C[C@H](NC(=O)CNC(=O)c1cc(F)cc(Cl)c1)c1ccccc1 [7o] | – | 124% | –
32 | C[C@H](NC(=O)CNC(=O)c1cc(Cl)cc(Br)c1)c1ccccc1 [7p] | – | 113% | –
33 | COc1cc(OC)cc(C(=O)NCC(=O)N[C@@H](C)c2ccccc2)c1 [7q] | – | 149% | –
34 | CCN1C(C)=NC2C=C(C(=O)NNC(=O)c3c(-c4ccccc4)noc3C)C=CC21 (stereo not drawn) [DL83] | – | – | EC50 (GPR139 [4]; values in text): > 10 µM
35 | CCn1c(C)nc2cc(C(=O)NNC(=O)Cc3coc4ccc5ccccc5c34)ccc21 [DL85] | – | – | EC50 (GPR139 [4]; [5]): 1.02 µM; Emax (GPR139 [4]): 95%; EC50 (GPR139 [4]; values in text): 1.02 µM
36 | COc1cc(OC)cc(C(=O)NNC(=O)c2cccc3ccccc23)c1 [DL96] | – | – | GPR139 agonist activity (in words) (GPR139 [4]; CHO-GPR139): loss of activity; also recorded: Inactive
37 | CN(C(=O)CNC(=O)c1ccc2c(c1)OCO2)C1CCc2ccccc21 (stereo not drawn) [DL131] | – | – | EC50 (GPR139 [4]; [5]): 1.09 µM; Emax (GPR139 [4]): 101%
38 | O=C(CN1CCCc2ccccc21)NNC(=O)c1ccc2[nH]cnc2c1 [DL144] | – | – | EC50 (GPR139 [4]; [5]): 1.16 µM; Emax (GPR139 [4]): 96%
39 | CCn1c(C)nc2cc(C(=O)NNC(=O)CC(C)c3ccccc3)ccc21 (stereo not drawn) [DL146] | – | – | EC50 (GPR139 [4]; [5]): 4.72 µM; Emax (GPR139 [4]): 85%; EC50 (GPR139 [4]; values in Figure 5 and Supplementary Chart 1): 4.71 µM
40 | C=C(C)c1cccc(C(C)(C)NC(=O)NNC(=O)c2ccc3c(c2)nc(C)n3CC)c1 [DL148] | – | – | EC50 (GPR139 [4]; [5]): 1.22 µM; Emax (GPR139 [4]): 100%
41 | COc1cc(OC)cc(C(=O)NCCC(=O)N2CCCc3ccccc32)c1 [DL154] | – | – | EC50 (GPR139 [4]; [5]): 1.5 µM; Emax (GPR139 [4]): 91%
42 | C[C@H](NC(=O)CNCc1cccc(Cl)c1)c1ccccc1 [compound 8] | – | – | EC50 (GPR139 [3]): > 10 µM
43 | C[C@H](NCCNC(=O)c1cccc(Cl)c1)c1ccccc1 [compound 9] | – | – | EC50 (GPR139 [3]): > 10 µM
44 | COc1cccc(C(=O)N[C@@H](C)C(=O)N[C@@H](C)c2ccccc2)c1 [compound 10] | – | 143% | –
45 | COc1cccc(C(=O)N[C@H](C)C(=O)N[C@@H](C)c2ccccc2)c1 [compound 11] | – | 88% | –
46 | COc1cccc(C(=O)N[C@@H](CO)C(=O)N[C@@H](C)c2ccccc2)c1 [compound 12] | – | 107% | –
